The values that follow come from ChEMBL document CHEMBL3507680, “University of Dundee, Gates Library screen for HepG2 cell viability”.

The nature of the data set: Human HepG2 cell viability assay in 384 well format. It is filed as toxicity, cell-based. Also on record: dose 125 nL, time 70.5 hour; concentration not given beside the values. The following applies: HepG2 cells, read-out: Inhibition.
Regarding `CC(=O)Nc1ccc(OCc2noc(C(=O)N3CCCC3)n2)cc1`, the cytotoxicity at 70.5 h was -14.2%. With `CCC(C)[C@H](NC(=O)c1cc(F)ccc1-n1cnnn1)C(=O)OC` (stereo partly specified) the figure was -13.4%; with `O=C(Cc1noc(C(=O)NCCO)n1)Nc1cccc(C(F)(F)F)c1`, -22.4%; with `COc1cc2c(cc1OC)C(=O)C(Sc1nnnn1C)C2` (stereo unspecified), -18.6%. With `O=S1(=O)CCC(S(=O)(=O)c2cccc(S(=O)(=O)N3CCCC3)c2)C1` (stereo unspecified) the figure was -12.1%. With `COc1ccccc1N1CCN(c2nc(N)nc3[nH]cnc23)CC1` the figure was -11.3%; with `CC(C)c1ccc2c(c1)C1(CC(=O)Nc3[nH]ncc31)C(=O)N2C` (stereo unspecified), -19.6%.

`c1ccc(CNc2nc(N3CCOCC3)nc3nccnc23)cc1`: the cytotoxicity at 70.5 h was -12.1%. With `Cn1ccnc1SC1CCc2ccccc2NC1=O` (stereo unspecified) the figure was -23.5%; with `CCOC(=O)c1nc(CC(=O)Nc2ccccc2)no1`, -17.6%. Turning to `COCC(=O)N(Cc1ccc2[nH]ccc2c1)C1CC1`, the cytotoxicity at 70.5 h was -25.2%. With `Cc1nc2oc(C(=O)N3CCCC3)c(N)c2c2c1CCCC2` the figure was -16.9%. As to `O=C(Cc1cnc(-n2cccc2)s1)NCCCO`, the cytotoxicity at 70.5 h was -25%. With `CCOC(=O)c1nc(COc2c(C)occc2=O)no1` the figure was -20.5%; with `Cc1cc(C)n(Cc2ccc(-c3noc(C(=O)NCCCO)n3)cc2)n1`, -21.4%.

Take `Cc1occc(=O)c1OCc1noc(C(=O)NCC2CC2)n1`: the cytotoxicity at 70.5 h was -16.6%. With `N#Cc1nc(COc2ccc3c(c2)OCO3)oc1NC1CC1` the figure was -28.4%; with `C[C@@H](O)CNC(=O)c1nc(CC(=O)Nc2ccccc2)no1`, -19.3%. As for `COC(=O)[C@H](CC(C)C)NC(=O)c1snnc1-c1ccc(OC)cc1`, the cytotoxicity at 70.5 h was 10.9%. In the case of `Cc1nc(NC(=O)c2c(-n3cnnn3)sc3c2CCC3)sc1C`, the cytotoxicity at 70.5 h was -5.79%. For `CC(=O)CSc1sc2c(O)cc(=O)[nH]c2c1C(N)=O`, the cytotoxicity at 70.5 h is -12.7%.

Consider `CN1C(=O)COc2ccc(C(=O)Cn3cnc4ccccc4c3=O)cc21`, for which the cytotoxicity at 70.5 h is -12%. With `COC(=O)c1cc2c(=O)n(C3CCCC3)ccc2nc1C`, the cytotoxicity at 70.5 h was -15.4%. With `CC(C)C[C@H](NC(=O)NC1CCS(=O)(=O)C1)C(=O)NCc1cccnc1` (stereo partly specified) the figure was -16%. As to `CN1CCN(C(=O)c2cc3occc3n2Cc2ccccc2F)CC1`, the cytotoxicity at 70.5 h was -10.6%.

On to `Cc1cccc(NC(=O)C2(n3cnnn3)CCCCC2)n1`, for which the cytotoxicity at 70.5 h was -26.9%. Turning to `COc1coc(C(=O)Nc2ccncc2)cc1=O`, the cytotoxicity at 70.5 h was -12.7%. Regarding `Cc1nc(C)c(CC(=O)NCc2ccc(F)cc2)s1`, the cytotoxicity at 70.5 h is -11.4%.

As for `COc1ccccc1NC(=O)Cn1c(=O)nc(N)c2cc(C)sc21`, the cytotoxicity at 70.5 h is -16.1%. Regarding `O=C(c1cc(=O)c(OCc2ccccc2F)co1)N1CCCC1`, the cytotoxicity at 70.5 h is 1.91%. In the case of `COC(=O)c1cc2c(=O)n(C3CC3)ccc2nc1C`, the cytotoxicity at 70.5 h amounted to 2.32%. `CC(C)NC(=O)c1csc(NC2CC2)n1`: the cytotoxicity at 70.5 h was 0.174%.

In the case of `CCCSc1nn(CCN(C)C)c2nc3sc(C)c(CC)c3c(=O)n12`, the cytotoxicity at 70.5 h came to 32.5%. With `CCCSc1nn(CCCN(C)C)c2nc3sc(C)c(CC)c3c(=O)n12` the figure was 11.5%; with `COc1ccc2cnn(CC(=O)NCC3CCCO3)c(=O)c2c1OC` (stereo unspecified), -3.4%; with `CC(C)Nc1nc(C(=O)Nc2ccccn2)cs1`, -13.8%. `O=C1CC(c2ccncc2)c2c(c(C(=O)O)cn2-c2ccccc2)N1` (stereo unspecified): the cytotoxicity at 70.5 h is -8.17%. With `CCc1c(C)sc2c1c(N)nc(=O)n2CCN1CCOCC1` the figure was 9.55%. For `Cc1n[nH]c2c1C(c1ccc3c(c1)OCCO3)SCC(=O)N2` (stereo unspecified), the cytotoxicity at 70.5 h was -0.607%. With `CC1CCN(c2ccc(=O)n(CC(=O)NCCc3ccccc3)n2)CC1` the figure was 5.19%; with `CN1CCN(C(=O)c2cc3sccc3n2Cc2ccc(Cl)cc2)CC1`, -5.06%. With `CC(=O)N1CCN(CCNC(=O)c2nc3ccccc3c(=O)[nH]2)CC1` the figure was -7.43%; with `CC1CC(=O)c2cc(C(=O)N3CCc4ccccc4C3)c(=O)[nH]c2C1` (stereo unspecified), -2.25%; with `Cc1n[nH]c2nc(-c3cccc(Cl)c3)cc(C(=O)O)c12`, 9.1%. For the molecule `CN1CCN(C(=O)c2cc3sccc3n2Cc2ccccc2Cl)CC1`, the cytotoxicity at 70.5 h is -6.69%. On to `Cc1nn(C)cc1C1CC(=O)Nc2c1cnn2C(C)(C)C` (stereo unspecified), for which the cytotoxicity at 70.5 h was -4.68%.

As to `O=C(CC1CC1)N1CCC2(CC1)CN(CCn1cccn1)C(=O)CO2`, the cytotoxicity at 70.5 h is -4.82%. On to `O=S(=O)(C1CC1)N1CCc2ncc(Cn3cncn3)n2CC1`, for which the cytotoxicity at 70.5 h is -3.06%. For `CN(C)Cc1nn(C)c2c1CN(C(=O)Nc1cccc(F)c1)C2`, the cytotoxicity at 70.5 h is -2.91%.

For the molecule `CN(C)Cc1nn(C)c2c1CN(C(=O)Nc1ccc(F)cc1)C2`, the cytotoxicity at 70.5 h was -3.55%. `NC(=O)N1CC[C@H]2CO[C@H](CNC(=O)c3ccnnc3)[C@H]2C1`: the cytotoxicity at 70.5 h is -0.828%. With `O=C1[C@@H]2CCN(CC3CCOCC3)C[C@@H]2OCCN1c1ccccc1` the figure was 1.16%; with `O=C(c1ncn2c1CNS(=O)(=O)c1ccccc1-2)N1CCCCC1`, -2.38%; with `CCN1CC[C@]2(CN(C(=O)[C@H]3CCCO3)C[C@H]2c2ccccc2)C1=O`, -1.85%. With `CC(C)c1nc(-c2cc(C(=O)NCCCO)c3ccccn23)cs1` the figure was -3.65%.

As for `N#Cc1cccc(CN2CCO[C@@H]3CNC[C@@H]32)c1`, the cytotoxicity at 70.5 h is -1.26%.

Consider `CCn1ncc2c1CN(C(=O)c1ccc3c(c1)OCO3)CC2COC` (stereo unspecified), for which the cytotoxicity at 70.5 h was -1.24%.

On to `CN(C)CCOCc1nnc2n1CCN(c1cnccn1)CC2`, for which the cytotoxicity at 70.5 h is 12.4%. Take `CC(C)c1nc(-c2cc(C(=O)O)c3ccccn23)cs1`: the cytotoxicity at 70.5 h came to 10.6%. With `CCS(=O)(=O)N1Cc2c(Cn3ccnc3)nn(C)c2C1` the figure was -2.09%. With `O=C(NC1CC1)N1CCOC2(CCCN(c3cccc(F)c3)C2)C1` (stereo unspecified) the figure was -3.8%; with `N#Cc1cccc(N2CCCC3(CN(C(=O)[C@H]4CCCO4)CCO3)C2)c1` (stereo partly specified), -0.958%; with `CCN(CC)Cc1nc2c(o1)CN(C(=O)c1ccc3ncccc3c1)C2`, -4.56%. With `CCC(C)Nc1ccc2c(c1)C1(CCOCC1)C(=O)N2c1ccccc1` (stereo unspecified) the figure was -7.71%.

As to `c1ccc(CN2CCOC3CNCC[C@H]32)cc1` (stereo partly specified), the cytotoxicity at 70.5 h was determined as 13.7%. Take `CCOCC1CN(C(=O)c2cc(C)oc2C)Cc2c1cnn2C` (stereo unspecified): the cytotoxicity at 70.5 h is -0.121%. Take `CC(C)NC(=O)[C@@H]1CN(Cc2ccc3c(c2)OCO3)C[C@H]2OCC[C@H]21`: the cytotoxicity at 70.5 h was -2.81%.

`Cn1nc(CNC(=O)CC#N)c2c1CN(CC1CC1)CC2`: the cytotoxicity at 70.5 h is -3.91%.

Consider `Cc1ccccc1N1CC2(CCCCN2CC2CC2)CC1=O` (stereo unspecified), for which the cytotoxicity at 70.5 h is -3.78%.

As to `COCCN1CCOCC12CCN(Cc1ccn(C)n1)CC2`, the cytotoxicity at 70.5 h was -5.01%. Consider `COc1ccccc1CCNC(=O)C1CCC(Cn2cnnn2)CC1` (stereo unspecified), for which the cytotoxicity at 70.5 h was -18.1%.
